Source: ChEMBL document CHEMBL4627399, “Synthesis and Structure-Activity Relationships of 5'-Aryl-14-alkoxypyridomorphinans: Identification of a μ Opioid Receptor Agonist/δ Opioid Receptor Antagonist Ligand with Systemic Antinociceptive Activity and Diminished Opioid Side Effects” (J Med Chem, 2020)
Active and inactive are the calls of the source. The rule behind the calls is not given here.

Columns and labels:
Mu-type opioid receptor [1] = target: T1, Mu-type opioid receptor (Homo sapiens, UniProt P35372); experiment: biochemical; format: cell-based, CHO
[2] = target: T2, Delta-type opioid receptor (Homo sapiens, UniProt P41143); experiment: Displacement of [3H]-diprenorphine from human delta opioid receptor expressed in CHO cell membranes incubated for 1 hr by competition radioligand binding assay
[3] = target: T3, Kappa-type opioid receptor (Homo sapiens, UniProt P41145); experiment: Displacement of [3H]-diprenorphine from human kappa opioid receptor expressed in CHO cell membranes incubated for 1 hr by competition radioligand binding assay
[4] = target: T2, Delta-type opioid receptor; experiment: Antagonist activity at human delta opioid receptor expressed in CHO cell membranes assessed as reduction in SNC80-induced [35S]GTPgammaS binding preincubated for 5 mins followed by SNC80 addition and measured after 1 hr; format: functional
[5] = Stability in human liver microsomes at 1 uM measured up to 60 mins by LC-MS/MS analysis; format: ADME, Microsome; details: 1 h
Mu-type opioid receptor [6] = target: T1, Mu-type opioid receptor; experiment: biochemical
[7] = target: T3, Kappa-type opioid receptor; experiment: Agonist activity at human kappa opioid receptor expressed in CHO cell membranes incubated for 1 hr by [35S]GTPgammaS binding assay; format: functional
[8] = target: T3, Kappa-type opioid receptor; experiment: Agonist activity at human kappa opioid receptor expressed in CHO cell membranes assessed as stimulation of [35S]GTPgammaS binding incubated for 1 hr relative to […]; format: functional

Row | Structure (SMILES) | Ki (Mu-type opioid receptor [1]) [nM] | Ki [2] [nM] | Ki [3] [nM] | IC50 [4] [nM] | Stability [5] | EC50 (Mu-type opioid receptor [6]) [nM] | EC50 ([7]; cho) | Emax [8] | EC50 ([7]; read-out: EC50) [nM]
1 | Oc1cccc(-c2cnc3c(c2)C[C@@]2(OCCCc4ccccc4)[C@H]4Cc5ccc(O)c6c5[C@@]2(CCN4CC2CC2)[C@H]3O6)c1 | 12.9 | 8.37 | 18.1 | 1.28 | Stable | 1.12 |  |  | 
2 | CN(C)Cc1ccccc1-c1cnc2c(c1)C[C@@]1(OCCCc3ccccc3)[C@H]3Cc4ccc(O)c5c4[C@@]1(CCN3CC1CC1)[C@H]2O5 | 56.4 | 14 | 22.7 | 11.7 | Stable | 28.9 | Not Active | inactive | 
3 | CC(=O)Nc1ccc(-c2cnc3c(c2)C[C@@]2(OCCCc4ccccc4)[C@H]4Cc5ccc(O)c6c5[C@@]2(CCN4CC2CC2)[C@H]3O6)cc1 | 159 | 394 | 15.1 |  | Stable |  |  |  | 
4 | Oc1ccc2c3c1O[C@H]1c4ncc(-n5cccc5)cc4C[C@@]4(OCCCc5ccccc5)[C@@H](C2)N(CC2CC2)CC[C@]314 | 14.7 | < 0.169 | 13.8 | 0.98 | Stable | 1.61 | Not Active | inactive | 
5 | Cc1cc(F)ccc1-c1cnc2c(c1)C[C@@]1(OCCCc3ccccc3)[C@H]3Cc4ccc(O)c5c4[C@@]1(CCN3CC1CC1)[C@H]2O5 |  | 3.78 | 129 | 28.2 | Stable |  | Not Active | inactive | 
6 | CN(C)c1ccc(-c2cnc3c(c2)C[C@@]2(OCCCc4ccccc4)[C@H]4Cc5ccc(O)c6c5[C@@]2(CCN4CC2CC2)[C@H]3O6)cc1 | 4.7 | 53.1 | 6.18 | 2.53 | Stable | 2.1 | Not Active | inactive | 
7 | Oc1ccc2c3c1O[C@H]1c4ncc(-c5ccccc5)cc4C[C@@]4(OCCCc5ccc(F)cc5)[C@@H](C2)N(CC2CC2)CC[C@]314 |  | 11 | 60.2 | 63.8 | Stable |  | Not Active | inactive | 
8 | Oc1ccc2c3c1O[C@H]1c4ncc(-c5ccccc5)cc4C[C@@]4(OCCCCc5ccccc5)[C@@H](C2)N(CC2CC2)CC[C@]314 | 92.1 | 14.6 | 57.1 | 66.6 | Stable | 24.8 |  |  | 
9 | Oc1ccc2c3c1O[C@H]1c4ncc(-c5ccc(F)cc5)cc4C[C@@]4(OCCCc5ccccc5)[C@@H](C2)N(CC2CC2)CC[C@]314 | 2.33 | 3.42 | 6.69 | 34.5 | Stable | 117 |  |  | 56.6
10 | COc1ccc(-c2cnc3c(c2)C[C@@]2(OCCCc4ccccc4)[C@H]4Cc5ccc(O)c6c5[C@@]2(CCN4CC2CC2)[C@H]3O6)cc1 |  | 30.6 | 140 | 22 | Stable |  |  |  | 2.02
11 | Cc1ccccc1-c1cnc2c(c1)C[C@@]1(OCCCc3ccccc3)[C@H]3Cc4ccc(O)c5c4[C@@]1(CCN3CC1CC1)[C@H]2O5 | 235 | 97.2 | 152 | 14.3 | Stable | 5.53 |  |  | 
12 | Oc1ccc2c3c1O[C@H]1c4ncc(-c5ccccc5)cc4C[C@@]4(OCCCc5ccccc5)[C@@H](C2)N(CC2CC2)CC[C@]314 | 23.1 | 19.3 | 132 | 0.93 | Stable | 1.27 |  |  | > 3330
13 | Oc1ccc2c3c1O[C@H]1c4ncc(-c5ccccc5)cc4C[C@@]4(OCCCC5CCCCC5)[C@@H](C2)N(CC2CC2)CC[C@]314 | 95.3 | 12.9 | 57.9 | 28.7 | Stable | 23.6 |  |  | 34.5
14 | Oc1ccc2c3c1O[C@H]1c4ncc(-c5ccccn5)cc4C[C@@]4(OCCCc5ccccc5)[C@@H](C2)N(CC2CC2)CC[C@]314 | 105 | 6.52 | 19.2 | 0.51 | Stable | 526 |  |  | 
15 | Oc1ccc2c3c1O[C@H]1c4ncc(-c5ccc(Cl)cc5)cc4C[C@@]4(OCCCc5ccccc5)[C@@H](C2)N(CC2CC2)CC[C@]314 |  |  |  |  | Stable |  |  |  | 
16 | Cc1nocc1-c1cnc2c(c1)C[C@@]1(OCCCc3ccccc3)[C@H]3Cc4ccc(O)c5c4[C@@]1(CCN3CC1CC1)[C@H]2O5 | 99.3 | 64.5 | 23.1 | 0.68 | Stable | 3.46 |  |  | 
